Our source for the AC50 values is PubChem BioAssay AID463204 (Broad Institute, 2010).

The source made the active and inactive calls.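 The calls were made as follows: active = AC50 no more than ten times the top concentration tested, that is within one log above it; inconclusive = flat curve fit with activity between 30% and 70%, or invalid poor fit; inactive = AC50 beyond ten times the top tested dose.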

The assay relates to S. cerevisiae Mot1-301 ts growth rescue, BacTiter-Glo ATP luminescence. In words: growth rescue of Mot1-301 ts yeast, confirmation, SUMOylation pathway inhibitor project, whole organism, S. cerevisiae, Mot1-301 ts mutant, luminescence, dose retest (AID 463204).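 Also: growth at restrictive 38.5 degrees C of Mot1-301 OY566 strain; actives raise luminescence by restoring growth of the ts mutant at high temperature.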

In general, AC50 refers to the concentration at which the activity in the assay is half-maximal.

For `COc1ccc2[nH]c(C(=O)N/N=C/c3ccccc3OC)cc2c1`, the AC50 is > 42 µM (inactive).

As for `Cc1c(NC(=O)c2ccc(N(C)S(C)(=O)=O)cc2)c(=O)n(-c2ccccc2)n1C`, the AC50 is > 42 µM (inactive).

`Cc1ccc(CSCCNC(=O)c2ccc(NS(C)(=O)=O)cc2)cc1`: the AC50 was > 42 µM (inactive).

Regarding `Cc1ccc(NS(=O)(=O)c2c(C)[nH]c(C)c2C(=O)N2CCCCC2)c(Cl)c1`, the AC50 is > 42 µM (inactive).

In the case of `CCN(CC)CCCN(Cc1cc2cc(OC)ccc2[nH]c1=O)C(=O)Nc1ccc(F)cc1`, the AC50 is > 42 µM (inactive).

With `CCCSc1nnc(NC(=O)CSc2sc3c(O)cc(=O)[nH]c3c2C#N)s1`, the AC50 is > 42 µM (inactive).

Regarding `CC(C)[C@H](NC(=O)C1(c2ccccc2)CCN(C(=O)OC(C)(C)C)CC1)C(=O)O`, the AC50 is > 42 µM (inactive).

For `O=C(CSc1nnc(CNC(=O)c2ccccc2F)o1)NCCc1ccccc1`, the AC50 is > 42 µM (inactive).

As for `O=C1N=C(N2CCOCC2)S/C1=C\c1cccnc1`, the AC50 is > 42 µM (inactive).

With `Cc1sc2nc(N)sc2c1C`, the AC50 is > 42 µM (inactive).

Take `O=C(c1cc(Cl)c(=O)n(Cc2ccc(Cl)cc2)c1)N1CCOCC1`: the AC50 is > 42 µM (inactive).

On to `CCOC(=O)N1CCC(Nc2nc3ccccc3n3nnnc23)CC1`, for which the AC50 is > 42 µM (inactive).

For the compound `CCCc1nc(NCc2ccccc2)c(C#N)c2c1CCCC2`, the AC50 is > 42 µM (inactive).

Regarding `CC(C)(C)C(=O)NC1(C(F)(F)F)NC(=O)N(c2ccccc2F)C1=O` (configuration not stated), the AC50 was > 42 µM (inactive).

Take `COc1ccc(NC(=O)Cn2c(=O)cnc3ccccc32)cc1S(=O)(=O)N1CCCCC1`: the AC50 is > 42 µM (inactive).

With `Cc1ccc2c(C)c(C(=O)N(C)C(C)c3ccncn3)oc2c1C` (configuration not stated), the AC50 was > 42 µM (inactive).

Take `CCC(=O)N1c2ccc(S(=O)(=O)N3CCN(c4ccc([N+](=O)[O-])cc4)CC3)cc2CC1C` (configuration not stated): the AC50 is > 42 µM (inactive).

On to `N/C(=N\OC(=O)CCC1CCCC1)c1ccc([N+](=O)[O-])cc1`, for which the AC50 is > 42 µM (inactive).

Turning to `COc1ccc2c(CC(=O)Nc3ccc(OC)c(NS(=O)(=O)c4ccc(F)cc4)c3)coc2c1`, the AC50 was > 42 µM (inactive).

As for `CC1(C)CC(=O)C=C(OC(=O)c2ccc(Cl)cc2)C1`, the AC50 is > 42 µM (inactive).

For `CN(C)CC/C=C1/c2cc(F)ccc2Sc2ccc(Cl)cc21`, the AC50 was > 42 µM (inactive).

`NC1=NC(=Nc2ccc(S(N)(=O)=O)cc2)c2ccccc21`: the AC50 is > 21 µM (inactive).

In the case of `O=C(NCCCN1CCOCC1)C1CCC(=O)N1CCc1ccccc1` (configuration not stated), the AC50 is > 42 µM (inactive).

`Cc1ccnc(NC(c2cccnc2)c2ccc3cccnc3c2O)c1` (configuration not stated): the AC50 was > 42 µM (inactive).

On to `CC(Oc1ccc([N+](=O)[O-])cc1)C(=O)NCCCN1CCOCC1` (configuration not stated), for which the AC50 is > 42 µM (inactive).

For `COc1ccc(S(=O)(=O)NCC(=O)N(CC(=O)NCC2CCCO2)c2ccccc2C)cc1` (configuration not stated), the AC50 is > 42 µM (inactive).

Take `Cc1ccccc1-n1c(-c2cccnc2)n[nH]c1=S`: the AC50 is > 42 µM (inactive).

For the compound `O=C(NCCCN1CCN(c2ccccc2F)CC1)Nc1ccccc1[N+](=O)[O-]`, the AC50 was > 42 µM (inactive).

Regarding `O=C1COc2ccc(C(=O)COC(=O)c3ncc(Cl)c(Cl)c3Cl)cc2N1`, the AC50 was > 42 µM (inactive).

As for `COc1ccccc1N(CC(=O)NCC1CCCO1)C(=O)CCC(=O)Nc1cc(C)on1` (configuration not stated), the AC50 is > 42 µM (inactive).

As to `COc1cc2c(cc1OC)CN(S(=O)(=O)c1cccc(F)c1)CC2`, the AC50 is > 42 µM (inactive).

For `CCOC(=O)C1=C(C)Nc2ncnn2C1/C=C/c1ccccc1` (configuration not stated), the AC50 is > 42 µM (inactive).

In the case of `C/C=C(/C)C(=O)OC1c2c(ccc3ccc(=O)oc23)OC(C)(C)C1OC(=O)/C(C)=C\C` (configuration not stated), the AC50 is > 42 µM (inactive).

For the compound `O=C(CCS(=O)(=O)c1ccc(Br)s1)NCc1ccccc1`, the AC50 is > 42 µM (inactive).

For `COc1cc(C(=O)Nc2ccc3c(c2)OCCO3)ccc1-n1cnnn1`, the AC50 is > 42 µM (inactive).

In the case of `CC(C)C(=O)NCCSc1c[nH]c2ccccc12`, the AC50 is > 42 µM (inactive).

In the case of `COCCN(C(=O)c1csnn1)C(C(=O)NC1CCCCC1)c1ccccc1` (configuration not stated), the AC50 was > 42 µM (inactive).

As for `Cn1c(CCN2CCOCC2)nc2cc(NC(=O)COc3ccccc3)ccc21`, the AC50 was > 42 µM (inactive).

On to `COc1ccc(CC(=O)NCCN2CCOCC2)cc1`, for which the AC50 is > 42 µM (inactive).

As for `O=C(Nc1ccc(F)cc1)c1cccnn1`, the AC50 is > 42 µM (inactive).

Take `CCn1c(SCC(=O)Nc2ccc(OCc3ccccc3)cc2)nnc1-c1ccco1`: the AC50 is > 42 µM (inactive).

With `C=CCN1c2ccccc2[C@]23C[C@@H](C(=O)OC)N=C2NC(C(=O)OC)=C(C(=O)OC)[C@H]13`, the AC50 was > 42 µM (inactive).

Regarding `COc1ccc(NC(=O)Cn2nnc(C(=O)Nc3ccc(F)c(Cl)c3)c2N)cc1`, the AC50 was > 42 µM (inactive).

As for `CCOc1ncccc1-c1nc(-c2cccs2)no1`, the AC50 is > 42 µM (inactive).

With `CN(C)CCCN(Cc1ccccc1)C(=S)Nc1ccc(F)c(Cl)c1`, the AC50 is > 42 µM (inactive).

As for `CC/C(=N\Nc1ccc([N+](=O)[O-])cc1)c1ccccc1`, the AC50 is > 42 µM (inactive).

`COc1ccc(C2=NOC(Cn3nc(C(=O)NCc4cccs4)cc3-c3ccccc3)C2)cc1` (configuration not stated): the AC50 was > 42 µM (inactive).

For `COc1ccc(NC(=O)c2ccc(-c3csc(C)n3)cc2)cc1`, the AC50 is > 42 µM (inactive).

With `Cc1ccc(N2C(=O)c3cccc4c(N5CCN(C)CC5)ccc(c34)C2=O)c2cccnc12`, the AC50 was > 42 µM (inactive).

Take `COC(=O)c1ccc(Cn2cc(Cl)cn2)cc1`: the AC50 is > 42 µM (inactive).

Take `C=C1C(O)[C@@H]2O[C@]3(CC[C@H](/C=C/C(C)[C@@H]4CC(C)=CC5(O[C@H](C[C@@](C)(O)C(=O)O)CCC5O)O4)O3)CC[C@H]2O[C@@H]1C(O)CC(C)[C@H]1OC2(CCCCO2)CCC1C` (some centres not stated): the half-maximal activity concentration (AC50) was 26 µM.

For the compound `CO/N=C/c1ccc(Oc2ccc(C)cc2)nc1`, the AC50 is > 42 µM (inactive).

In the case of `CC1=C(C(=O)OCc2ccccc2)C(c2cccc(F)c2)NC(=O)N1` (configuration not stated), the AC50 was > 42 µM (inactive).

Turning to `O=C(COc1cccc2cccnc12)N1CCc2ccccc21`, the AC50 is > 42 µM (inactive).

Turning to `CCOC(=O)c1cnc2oc3ccccc3n2c1=O`, the AC50 was > 42 µM (inactive).

In the case of `COc1cc(C)c(Cl)c(C)c1S(=O)(=O)NCc1ccc2c(c1)OCO2`, the AC50 is > 42 µM (inactive).

Take `CCc1noc(C)c1C(=O)Nc1nc(-c2ccc(F)cc2)c(C)s1`: the AC50 is > 42 µM (inactive).

Regarding `CCOC(=O)c1oc2ccccc2c1COC(=O)CNC(=O)c1cccc(C)c1`, the AC50 is > 42 µM (inactive).

For the compound `CC(=O)Nc1cccc2c1C(=O)N(c1ccccc1C)C2=O`, the AC50 was > 42 µM (inactive).

Regarding `CCC(CC)NC(=O)c1oc2ccccc2c1COc1ccccc1`, the AC50 is > 42 µM (inactive).

With `Cc1cc(C)n(CCOC(=O)C2C(C=C(Cl)Cl)C2(C)C)n1` (configuration not stated), the AC50 was > 42 µM (inactive).

As to `Cc1n[nH]c(=O)nc1NCc1ccc(Cl)cc1`, the AC50 was > 42 µM (inactive).

On to `Cn1c(CN2CCOCC2)nnc1SCC(=O)Nc1cc(Cl)ccc1Cl`, for which the AC50 was > 42 µM (inactive).

With `C=CCN1C(=O)/C(=C2/Sc3ccc(OC)cc3N2C)SC1=Nc1ccccc1`, the AC50 was > 42 µM (inactive).

Consider `CC(C)C(NC(=O)c1ccccc1)C(=O)NCC(c1ccccc1)N(C)C` (configuration not stated), for which the AC50 was > 42 µM (inactive).

Take `Cc1n[nH]c(=O)c2c(NC(=O)COC(=O)Cc3ccc(Cl)cc3Cl)oc(C)c12`: the AC50 is > 21 µM (inactive).

As to `COC(=O)C(CC(C)C)NC(=O)CNC(=O)c1ccccc1C` (configuration not stated), the AC50 was > 42 µM (inactive).

Consider `O=C(O)c1ccc(N=C2NC(=O)C(CO)(CO)S2)cc1`, for which the AC50 is > 42 µM (inactive).

As for `COc1cc(/C=N/n2c(C3CCCCC3)n[nH]c2=S)cc(OC)c1O`, the AC50 was > 42 µM (inactive).

`O=S(=O)(c1cccc(-c2nnco2)c1)N1CCCC1`: the AC50 is > 42 µM (inactive).

Take `Cc1ccccc1-c1nc(CN2CCCC(C(=O)NCc3cccnc3)C2)c(C)o1` (configuration not stated): the AC50 was > 42 µM (inactive).

For `O=C(O)CCC(NC(=O)c1ccc(Cl)cc1)C(=O)O` (configuration not stated), the AC50 is > 42 µM (inactive).

For `CC1CCN(C(=O)Cn2cnc3c2c(=O)n(C)c(=O)n3C)c2ccccc2S1` (configuration not stated), the AC50 was 7.66 µM.

As for `O=S(=O)(NCC1CCCO1)c1cc(Cl)ccc1Br` (configuration not stated), the AC50 was > 42 µM (inactive).

Regarding `Cc1ccccc1-n1ncc2c([N+](=O)[O-])cc([N+](=O)[O-])cc21`, the concentration at half-maximal activity (AC50) is 5.35 µM.

For the compound `COc1cccc(C(=O)NCc2ccc(-c3nc4ccccc4s3)cc2)c1`, the AC50 is > 42 µM (inactive).

As to `CCC(CC)C(=O)Nc1ccc(S(=O)(=O)Nc2nccs2)cc1`, the AC50 was > 42 µM (inactive).

As for `COc1ccc(N2C(=O)CC(NCc3cccs3)C2=O)cc1` (configuration not stated), the AC50 was > 42 µM (inactive).

Take `CCCCC1=CC2=CC(=O)C(C)(OC(=O)CC)C(=O)C2=CN1CCc1ccc(Br)cc1` (configuration not stated): the AC50 was > 42 µM (inactive).

In the case of `O=[N+]([O-])c1c(NCCCO)cc(Sc2nc3ccccc3s2)c2nonc12`, the concentration at half-maximal activity (AC50) is 40 µM.

For the compound `O=C(CCC1CCCN(C(=O)Cc2cccc(F)c2)C1)N1CCN(c2ccccn2)CC1` (configuration not stated), the AC50 is > 42 µM (inactive).

As for `C=C(C)C(=O)OC1(C(F)(F)F)Oc2cc(C)ccc2NC1=O` (configuration not stated), the half-maximal activity concentration (AC50) is 4.67 µM.

In the case of `O=C(CSc1ccc(Br)cc1)Nc1ccccc1N1CCOCC1`, the AC50 is > 42 µM (inactive).

Turning to `O=C(CCCc1nc(-c2ccc(Cl)cc2)no1)NC1CCCCC1`, the AC50 was > 42 µM (inactive).

For `Cc1cc(C)c2nc(-c3cccnc3)cc(C(=O)Nc3ccc(S(=O)(=O)Nc4onc(C)c4C)cc3)c2c1`, the AC50 was > 42 µM (inactive).

On to `CC(=O)NCCc1nc2cc(NC(=O)c3ccc(F)cc3)ccc2n1C`, for which the AC50 was > 42 µM (inactive).

Regarding `COc1ccc2[nH]cc(C(=O)C(=O)N3CCCCC3)c2c1`, the AC50 is > 42 µM (inactive).
